System: mouse
Assay: mouse hot plate test
Type: in vivo
Settings: 15 minutes after administration, hot plate 52° C.
Method: The compounds of this invention are useful as analgesics. […] In this test, a mouse is placed inside an upright acrylic cylinder comprising, as its base, a hot plate surface which is maintained at 52° C. The mouse is given, by subcutaneous injection, a predetermined amount of test compound dissolved or suspended in a suitable carrier, and, 15 minutes after administration of the test compound, the mouse is placed on the hot plate surface. The latencies in seconds until the occurrence of each of two separate phenomena then are recorded. First the latency until the mouse licks its hind paw is measured, and, secondly, the latency until the mouse jumps from the hot plate surface is measured. […] This must occur in a dose range which produces no motor incoordination or incapacitation. The following Table records the results obtained from this test, reflected in terms of increase over saline control. Each data point was determined using ten treated and ten control mice, and each represents the difference in mean response latency between treated and control animals. The mean control latency for the hind paw lick response was 28.4±0.9 seconds determined from eight groups of ten control mice each. The mean control jump latency was 52.4±3.7 seconds for studies run in the a.m. and 75.9±6.0 seconds for studies run in the p.m. as determined from four groups of ten mice each in the a.m. and four groups of ten mice each in the p.m.

CSCCC(C)(CO)NC(=O)[C@H](Cc1ccccc1)NC(=O)CNC(=O)[C@@H](C)NC(=O)[C@@H](N)Cc1ccc(O)cc1 (stereo partly drawn) [C, L-Tyrosyl-D-alanyl-glycyl-L-phenylalanyl-D,L-α-methylmethionine carbinol]
Latency, Increase in Seconds over Control, escape jump (EJ) (dose 0.1 mg/kg subcutaneous): 16.4 s
Latency, Increase in Seconds over Control, hind paw lick (HPL) (dose 0.1 mg/kg subcutaneous): -2.6 s
Latency, Increase in Seconds over Control, escape jump (EJ) (dose 0.3 mg/kg subcutaneous): 47.7 s
Latency, Increase in Seconds over Control, hind paw lick (HPL) (dose 0.3 mg/kg subcutaneous): 1.7 s
Latency, Increase in Seconds over Control, escape jump (EJ) (dose 1 mg/kg subcutaneous): 55.2 s
Latency, Increase in Seconds over Control, hind paw lick (HPL) (dose 1 mg/kg subcutaneous): 8.3 s
Latency, Increase in Seconds over Control, escape jump (EJ) (dose 3 mg/kg subcutaneous): 74.9 s
Latency, Increase in Seconds over Control, hind paw lick (HPL) (dose 3 mg/kg subcutaneous): 11.2 s
Latency, Increase in Seconds over Control, escape jump (EJ) (dose 10 mg/kg subcutaneous): 90.7 s
Latency, Increase in Seconds over Control, hind paw lick (HPL) (dose 10 mg/kg subcutaneous): 18.8 s
Latency, Increase in Seconds over Control, escape jump (EJ) (dose 30 mg/kg subcutaneous): 93.8 s
Latency, Increase in Seconds over Control, hind paw lick (HPL) (dose 30 mg/kg subcutaneous): 10.6 s
